Patent US10201558B2, “Compositions of selenoorganic compounds and methods of use thereof” (Alltech, Inc., priority 2014, dated 2019)
“Also recorded” adds a separate entry of the source.

Experiments:
APOE4 = assay: Western blot of APOE4 protein in IMR-32 cells; assay type: cell-based, human; conditions: 150 ppb
Experimental: IMR-32 cells were seeded on 6-well plates and then treated with control and various compounds for 6 hours and 24 hours, as described above. After treatments, cells were rinsed with ice-cold PBS and lysed in ice-cold RIPA buffer containing complete proteinase and phosphatase inhibitors (Thermo-Fisher Scientific, Waltham, Mass.) on ice for 30 min Cell lysates were collected using a cell scraper and transfer pipette and then centrifuged at 12000×g for 30 min at 4° C. to remove the DNA pellet and obtain the protein extract. Protein levels in the supernatant of these cell lysates were determined using the Pierce Micro-BCA protein assay kit (Thermo Scientific-Piece Biotechnology, Rockford, Ill.) according to the manufacturer's protocol […]
Positive signals on the membrane blots were detected using Amersham's enhanced chemiluminescence (ECL) Western Blotting Prime Detection reagents (GE healthcare Lifescience, Pittsburgh, Pa.). Images of these luminescence signals on the membrane blots were captured using the LI-COR Odyssey Fc Image system (Lincoln, Nebr.). […] Protein band densities in the Western blots were determined using the Li—COR Image studio software or NIH ImageJ software, and then normalized by ACTB protein level in each sample. […]

APOE = assay: QRT-PCR of APOE mRNA in IMR-32 cells (normal, control KD, FOXO4 KD); assay type: cell-based, human; conditions: 24 hours
Experimental: IMR-32 cells were cultured on 12-well plates for 24 hours and then incubated with FOXO4 siRNA lentiviruses (SC-29650V, Santa Cruz) or control siRNA lentiviruses (sc-108080, Santa Cruz) in the presence of Polybrene (5 μg/ml, Santa Cruz) for 24 hours according to the manufacturer's protocol. These lentiviral siRNA-transfected cells were amplified in normal media for 3 days and then incubated with puromycin for 9-14 days to obtain the stable Control KD (stably transfected with the control siRNAs) and FOXO4KD (stably transfected with Foxo4 siRNAs) cells. These control and Foxo4 KD cells were subjected to cell survival, mitochondrial potential and RNA analysis.
Human IMR-32 cells were seeded on gelatinized 6-well (6.5×10^5 cells/well) or 24-well (1.3×10^5 cells/well) plates. Cells were treated with control (0 ppb) or various compounds for 6 hours or 24 hours. Total RNA from these cells was isolated using Trizol (Invitrogen) according to the manufacturer's protocol, and then incubated with DNase I to remove any potential contaminated genomic DNA. Then RNA samples were subjected to real-time PCR analysis using the Applied-Bioscience's RT kit and predesigned Taqman probes (Invitrogen), as described previously (Lan et al EMBO J 2003). The mRNA levels of UCP1, UCP2, UCP3, SLC25A27 (UCP4), SLC25A14 (UCP5), PSEN1, Nicastrin, GSK3B, MAPK11-14, PPARG, APOE, RCAN1, RCAN1.1, G6PC, INSR, IGF1R and FOXO4 were measured. Three to six samples were analyzed in each treatment group. Data were normalized by Actin B (ACTB) or Glyceraldehyde Phosphate Dehydrogenase (GAPDH) mRNA levels in each sample and are presented as mean±SEM of 3-6 samples.
To explore this possibility, IMR-32 cells were treated with 150 ppb Compound C, Compound D or Compound E (150 ppb) for 6 hours and 24 hours, and then subjected to Western blot and QRT-PCR analyses. […] Therefore, Compound C and Compound D are downregulators of PPARG in IMR-32 cells at both mRNA and protein levels. […]

[1] = tested on: phosphorylated Foxo3 (threonine 32); assay: Western blot of phosphorylated Foxo3 in APP/PS1 mouse brains; assay type: in vivo; conditions: APP/PS1 mouse brain, Compound C diet vs control diet
Experimental: Male APPΔNLh/ΔNLh×PS1P246 L/246 L knock-in model mice of Alzheimer's disease (abbreviated APP/PS1) were genotyped using standard primers for human APP (Amyloid Precursor Protein) and human PS1 (PSEN1).
At 12 months of age, the mice were euthanized and the brains quickly removed, the cerebellum isolated and the hemispheres snap-frozen in liquid nitrogen and then stored at −80° C. for further immunohistochemistry (IHC), protein and RNA analysis. All procedures conducted on these animal studies were pre-approved by the University of Kentucky IACUC committee.
Frozen hemispheres of control- and Compound C-treated APP/PS1 mice were weighed and homogenized in PBS buffer, and then subsequently extracted with RIPA buffer (Sigma) containing complete proteinase and phosphatase inhibitors (Fisher Scientific). Protein levels in the samples were determined by micro-BCA protein analysis according to the manufacturer's protocol. […] Positive signals on the membrane blots were detected using Amersham's enhanced chemiluminescence Western Blotting Prime Detection reagents (GE healthcare Lifescience, Pittsburgh, Pa.). Images of these luminescence signals on the membrane blots were captured using the LI-COR Odyssey Fc Image system (Lincoln, Nebr.). […]

SMILES: C[Se]C[C@H]1O[C@@H](n2cnc3c(N)ncnc32)C(O)C1O (stereo in doubt) [Compound C, 5′-deoxy-5′-methylselenoadenosine]
- APOE4 protein levels (APOE4; 6 hours): not for 6 hour
- APOE4 protein levels (APOE4; 24 hours): markedly decreased
- APOE mRNA expression (APOE; FOXO4KD cells, 75 ppb and 150 ppb): not significantly altered
- APOE mRNA levels (APOE; IMR-32 cells, 150 ppb): significantly decreased
- APOE mRNA levels (APOE; control normal cells, 75 ppb and 150 ppb): attenuated
- phosphorylated Foxo3 at threonine 32 (pFoxo3) protein [1]: inhibition; also recorded: less abundant; also recorded: significant decrease
